Biological target: BRD4 (Homo sapiens, UniProt O60885)
Test: PROTAC degradation in bladder cancer cells by Western blot; blocked by JQ1, MG132 and MLN4924
Type: cell-based

How did the DC50 turn out when Cc1nnc2n1-c1sc(C#Cc3cnn(CCCC#Cc4cccc5c4CN(C4CCC(=O)NC4=O)C5=O)c3)c(Cc3ccccc3)c1COC2 (stereo not shown) [QCA570] was run?
The DC50 was roughly 1 nM.

— article PMC9887192, “Lethal activity of BRD4 PROTAC degrader QCA570 against bladder cancer cells” (Frontiers in Chemistry, 2023)
